According to patent US4889860A (Nova Pharmaceutical Corporation, priority 1987, dated 1989):

Legend:
[1] = food intake in 24 hr food-deprived rats; format: in vivo, rat; details: for Food Intake in Grams: Table 3, 24 hr; for Cumulative Food Intake in Grams: Table 4
Experimental: Rats were given water and powdered food ad lib for 8 days until food intake had stabilized, and body weight and food and water intakes were recorded at the same time every day. Animals were assigned to treatment groups matched on the basis of their 24 hr food consumption on the last baseline day, and rats were food deprived for 24 hr immediately before injection of the test compound. […] The compound of Example XII was injected S.C. at doses of 1.15, 2.31, 11.55 and 23.09 μmol/kg, in a volume of 4 ml/kg of 0.3% acetic acid. Controls were injected with the vehicle solutions in the appropriate volumes. Food and water intakes were measured at 1, 3 and 24 hr after treatment. Data for each measure and time point were analyzed by one-way analysis of variance (ANOVA), and post-hoc comparisons were performed using Dunnett's test in order to compare the control mean to each of the treatment means.
Rats were given water and powdered food for 8 days, and following this,
Testing was performed as described above, and baseline measurements were recorded for 7 days. […] The compound of Example XII was injected at doses of 11.55, 23.09, 46.19 and 92.38 μmol/kg by suspension in a solution of 1:1 DMSO:water in a volume of 3 ml/kg. Food and water intakes were recorded at 1, 2, 4 and 6 h following treatment.
See Table 3 for experimental details, except that baseline measures were […]

[2] = conditioned taste aversion in rats; format: in vivo, rat; details: for conditioned taste aversion (milk intake, preference ratio): I.P., day 10
Experimental: The ability of a compound to inhibit feeding may not be related to its anorectic properties, but rather to the ability of that compound to produce a conditioned taste aversion. This possibility was tested in the following experiment. Animals were adapted to water deprivation by restricting their access to water to a single 30 min presentation occurring at the same time every day. Baseline water intakes were determined for 7 days until intakes had stabilized, and animals were assigned to treatment groups based on their intakes on the final baseline day. On the following day (day 8), all rats received a bottle of condensed milk (diluted 2:1 water:milk) in place of the water, and intakes were recorded for 30 min. Fifteen minutes after the milk was removed, rats were administered an I.P. injection of vehicles, LiCl (299.6 μmol/kg) or the compound of Example XII (1.15, 2.31, 11.55 and 23.09 μmol/kg). The compound of Example XII was dissolved in 0.3% acetic acid in a volume of 4 ml/kg. LiCl was dissolved in saline, and serves as a positive control, since it is a compound that reliably produces a strong conditioned taste aversion. This procedure was repeated on day 9. On day 10, all rats were given a two-bottle choice of water or the milk:water solution, and intakes were recorded for 30 min. Data for each experiment were analyzed by one-way ANOVA, and post-hoc comparisons were performed using Dunnett's test.
The effects of the compound of Example XII in producing a conditioned taste aversion are illustrated in FIGS. 28 and 29. In FIGS. 28 and 29 the data represent the mean ±SEM for each group. **=p<0.01 (Dunnett's test). Abbreviations: SAL, saline; AA, 0.3% acetic acid in distilled water; LiCl, lithium chloride. Doses of the compound of Example XII for each group are expressed in μmole/kg. The number of animals per group: SAL, 4: AA, LiCl and each dose of Example XII, 5. FIG. 28: Total milk intake in ml on day 10. FIG. 29: Preference ratio on day 10.

SMILES: Oc1ccc2c3c1O[C@H]1C(=NOc4ccccc4)CC[C@@]4(O)[C@@H](C2)N(CC2CC2)CC[C@]314 [Example XII, 6-Phenyloximino-17-cyclopropylmethyl-4,5 α-epoxy-3, 14-dihydroxymorphinan]
- Food Intake in Grams ([1]; S.C. 1.15 μmol/kg): 33.3 ± 1.6 Grams
- Food Intake in Grams ([1]; S.C. 2.31 μmol/kg): 31.0 ± 2.0 Grams
- Food Intake in Grams ([1]; S.C. 11.55 μmol/kg): 41.7 ± 7.4 Grams
- Food Intake in Grams ([1]; S.C. 23.09 μmol/kg): 37.6 ± 5.6 Grams
- Cumulative Food Intake in Grams ([1]; S.C. 11.55 μmol/kg, 0-1 Hr): 2.0 ± 1.0 Grams
- Cumulative Food Intake in Grams ([1]; S.C. 11.55 μmol/kg, 0-2 Hr): 2.0 ± 1.0 Grams
- Cumulative Food Intake in Grams ([1]; S.C. 11.55 μmol/kg, 0-4 Hr): 2.8 ± 0.9 Grams
- Cumulative Food Intake in Grams ([1]; S.C. 11.55 μmol/kg, 0-6 Hr): 3.6 ± 1.3 Grams
- Cumulative Food Intake in Grams ([1]; S.C. 23.09 μmol/kg, 0-1 Hr): 2.0 ± 0.7 Grams
- Cumulative Food Intake in Grams ([1]; S.C. 23.09 μmol/kg, 0-2 Hr): 2.4 ± 0.8 Grams
- Cumulative Food Intake in Grams ([1]; S.C. 23.09 μmol/kg, 0-4 Hr): 3.6 ± 1.5 Grams
- Cumulative Food Intake in Grams ([1]; S.C. 23.09 μmol/kg, 0-6 Hr): 3.6 ± 1.5 Grams
- Cumulative Food Intake in Grams ([1]; S.C. 46.19 μmol/kg, 0-1 Hr): 2.8 ± 0.6 Grams
- Cumulative Food Intake in Grams ([1]; S.C. 46.19 μmol/kg, 0-2 Hr): 2.8 ± 0.6 Grams
- Cumulative Food Intake in Grams ([1]; S.C. 46.19 μmol/kg, 0-4 Hr): 3.2 ± 0.6 Grams
- Cumulative Food Intake in Grams ([1]; S.C. 46.19 μmol/kg, 0-6 Hr): 3.6 ± 0.8 Grams
- Cumulative Food Intake in Grams ([1]; S.C. 92.38 μmol/kg, 0-1 Hr): 3.2 ± 0.6 Grams
- Cumulative Food Intake in Grams ([1]; S.C. 92.38 μmol/kg, 0-2 Hr): 3.2 ± 0.6 Grams
- Cumulative Food Intake in Grams ([1]; S.C. 92.38 μmol/kg, 0-4 Hr): 4.0 ± 0.7 Grams
- Cumulative Food Intake in Grams ([1]; S.C. 92.38 μmol/kg, 0-6 Hr): 4.8 ± 1.1 Grams
- conditioned taste aversion (milk intake, preference ratio) [2]: totally ineffective in producing a conditioned taste aversion
- conditioned taste aversion (milk intake, preference ratio) ([2]; listed as Compound XII): inability of various doses
- general malaise ([2]; doses up to 23.09 μmol/kg): does not appear to cause any general malaise at doses up to 23.09 μmol/kg
